Source: publication PMC9569971, “New Oxazolo[5,4-d]pyrimidines as Potential Anticancer Agents: Their Design, Synthesis, and In Vitro Biological Activity Research” (International Journal of Molecular Sciences, 2022)
Entries after “also recorded” stand apart in the source; their conditions may differ. Read-outs that look alike come from different tables or passages of the source.

Key:
[1] = MTT viability assay, L929; format: cell-based, murine; settings: mouse, L929 fibroblasts, tested 1–500 µM
Procedure: (§1) When the confluence was greater than 70%, adherent cell lines were detached from the bottle surface with a TrypLE solution and then used in assays or reduced. The cells were collected into centrifuge tubes and centrifuged at 1000× g for 5 min at room temperature. The supernatant was removed to dry. The cell pellets were then resuspended in an appropriate medium. The cells were counted using a Bürker chamber and resuspended in 96-well plates to a cell density of 10,000 cells per well for MTT assay. For the rhodamine accumulation test and the detection of apoptosis assay, cells were seeded at a density of 30,000 per well. In the migration assay, cells were seeded at a density of 20,000 per well, and monolayer formation was awaited.
(§2) In this study, normal human dermal fibroblasts (NHDFs), breast cancer cells (MCF7), human lung adenocarcinoma cells (A549), murine fibroblasts (L929), colon adenocarcinoma cells (HT29), and colorectal adenocarcinoma cells (LoVo) were used. All cell lines were cultured in the recommended media. […] The human lung adenocarcinoma cell line A549 and breast cancer cell line MCF-7 were obtained from the ECACC. These cell lines were cultured in Eagle’s minimal essential medium (MEM). Murine fibroblast L929 (Sigma-Aldrich, Merck Group, Headquarters, Darmstadt, Germany; the European Collection of Authenticated Cell Cultures—ECACC) cells were grown in DMEM. […] All media were supplemented with 10% FBS and 100 µg/mL of penicillin–streptomycin.
(§3) All compounds were dissolved in DMSO and the reference drugs were dissolved in physiological saline to concentrations of 10 mM. Concentrations from 1 to 500 μM in the media recommended for the cell lines were prepared for the tests.
(§4) All of the synthesized derivatives were evaluated via the MTT assay. All cell lines were seeded into 96-well plates at a density of 10,000 cells per well. To allow the cells to adhere to the surface of the plates, they were incubated overnight before the application of the test compounds. […] The tests were performed for concentrations of 1, 5, 10, 25, 50, 100, 250, and 500 μM. The solutions of the test compounds were removed from the culture on the 96-well plates. […] The supernatant was then removed. The violet crystal was dissolved in isopropanol for 30 min by shaking. Absorbance was measured at 570 nm.
(§5) Biological assays were performed in three independent replicates, and each replicate used four samples. Three repetitions were made for the ELISA determinations. For the assessment of cytotoxicity, mathematical models were developed using the GraphPad PRISM software, based on which CC50 was determined. The values of CC50 were estimated based on nonlinear regression using the dependence of the biological effect on the molar concentrations of the compounds (four-parameter logistic model with Hill slope).

HT29 cells = assay: Migration (scratch) assay; format: cell-based, human; settings: control T 155558.2, control T0 544366.45
Procedure: The scratch test was performed to verify that the tested compound 3g could inhibit the formation of metastases by the HT29 cell line. The seeded HT29 cells were incubated until they formed a monolayer over the entire surface of the well. Then, a scratch test was performed by making a scratch in the monolayer and measuring its width—that is, To, amounting to 544,366.45 μm^2. Freshly prepared compounds were added to the HT29 cells at concentrations of 10, 25, 50, and 100 μM. Breeding plates were incubated for 24 h. The next day, scratch width was measured again using the ImageJ open-source platform. […] The lowest cellular overgrowth of HT29 culture occurred at the concentration of 100 μM for the compound. Compound 3g inhibited the migration of HT29 cells more strongly than the reference drugs, showing that it has the potential to inhibit metastasis. The width of the scratch after 24 h when no compound was applied to the cells was used as a control (T = 155,558.2 μm^2).
as §1, with “All cell lines were grown in 5% CO2 at 95% humidity and 37 °C, with both morphology and confluence assessed twice per week. When” for “When”
After seeding, HT29 cells were incubated until they formed a monolayer over the entire surface of the well. A scratch was made on the surface overgrown with cells, and then photomicrographs of the scratch were taken using the EVOS FL microscope. The freshly prepared compound 3g and the reference drugs were added at concentrations of 10, 25, 50, and 100 µM. Then, they were incubated for 24 h, and micrographs were performed at that time using the EVOS FL microscope. The scratch width was measured using the ImageJ open-source platform. The measurement of scratch width was also performed after 24 h without adding compounds.

[2] = test system: metastatic colon adenocarcinoma (LoVo); assay: MTT viability assay, LoVo; format: cell-based, human; settings: for SI (selectivity index): CC50 NHDF / CC50 LoVo; for CC50: Homo sapiens, LoVo, MTT, tested 1–500 µM
Procedure: as §1, §2, §3, §4, §5

[3] = test system: primary colon adenocarcinoma (HT29); assay: MTT viability assay, HT29; format: cell-based, human; settings: for SI (selectivity index): CC50 NHDF / CC50 HT29; for CC50: tested 1–500 µM
Procedure: as §1, §2, §3, §4, §5

[4] = MTT viability assay, NHDF; format: cell-based, human; settings: human, normal human dermal fibroblasts (NHDF), tested 1–500 µM
Procedure: as §1, §2, §3, §4, §5

[5] = test system: lung adenocarcinoma (A549); assay: MTT viability assay, A549; format: cell-based, human; settings: for SI (selectivity index): CC50 NHDF / CC50 A549; for CC50: Homo sapiens
Procedure: as §1, §2, §3, §4, §5

[6] = test system: HT29 primary colon adenocarcinoma cells; assay: Detection of apoptosis (Annexin V FITC / propidium iodide); format: cell-based, human; design: unit not given here; settings: 24 h
Procedure: as §1, with “All cell lines were grown in 5% CO2 at 95% humidity and 37 °C, with both morphology and confluence assessed twice per week. When” for “When”
HT29 primary colon adenocarcinoma cells were grown in 96-well plates for 24 h. The 5 selected derivatives were added at concentrations of 1, 2, 5, and 10 µM, and then incubated for 24 h. The mixture of Annexin V conjugated with fluorescein and propidium iodide in PBS with Mg^2+ and Ca^2+ ions (Thermo Fisher Scientific, Waltham, MA, USA) was then applied. The incubation lasted 20 min at 37 °C. Pictures were taken using a fluorescence microscope. Thirteen images were taken from each well using an EVOS FL fluorescence microscope, with three replications for each compound. The open ImageJ space was used to analyze the number of cells. The Thermo Fisher Dead Cell Apoptosis Kit with Annexin V FITC and Propidium Iodide (PI) detects phosphatidylserine extrusion in apoptotic cells using Annexin V conjugated with a green fluorescent FITC dye and dead cells stained by PI with red fluorescence.

[7] = test system: breast adenocarcinoma (MCF7); assay: MTT viability assay, MCF7; format: cell-based, human; settings: for SI (selectivity index): CC50 NHDF / CC50 MCF7; for CC50: Homo sapiens, MCF7, MTT, tested 1–500 µM
Procedure: as §1, §2, §3, §4, §5

HT29 = settings: ref 70; cited from earlier work
A549 = settings: cited from earlier work
[8] = test system: normal human dermal fibroblasts (NHDF); assay: MTT viability assay, NHDF; format: cell-based; settings: tested 1–500 µM
Procedure: as §1, §2, §3, §4, §5

O=c1[nH]cc(F)c(=O)[nH]1 [Compound 5-FU, 5-fluorouracil, reference compound]
CC50 [1]: 38.1 ± 7.13 µM | scratch width after 24 h, mean (HT29 cells; 10 μM): 155098.248 μm^2 | scratch width after 24 h, mean (HT29 cells; 25 μM): 192391.405 μm^2 | scratch width after 24 h, mean (HT29 cells; 50 μM): 198312.887 μm^2 | scratch width after 24 h, mean (HT29 cells; 100 μM): 282974.4 μm^2 | SI (selectivity index) [2]: 0.282 | SI (selectivity index) [3]: 0.053 | CC50 ([3]; HT29, MTT): 381 ± 25.5 µM | CC50 ([3]; Homo sapiens, HT-29, HT29, MTT): 381 µM | CC50 [4]: 20.4 ± 2.97 µM | SI (selectivity index) [5]: 0.076 | CC50 ([5]; A549, MTT, tested 1–500 µM): 269 ± 17.2 µM | apoptosis mean ([6]; 1 μM): 7.92 | late apoptosis mean ([6]; 1 μM): 31.72 | necrosis mean ([6]; 1 μM): 10.48 | percent live (viable) cells ([6]; 1 μM): 59.77 | apoptosis mean ([6]; 2 μM): 10.65 | late apoptosis mean ([6]; 2 μM): 28.91 | necrosis mean ([6]; 2 μM): 8.86 | percent live (viable) cells ([6]; 2 μM): 63.94 | apoptosis mean ([6]; 5 μM): 10.75 | late apoptosis mean ([6]; 5 μM): 33.06 | necrosis mean ([6]; 5 μM): 8.39 | percent live (viable) cells ([6]; 5 μM): 60.16 | apoptosis mean ([6]; 10 μM): 3.81 | late apoptosis mean ([6]; 10 μM): 16.02 | necrosis mean ([6]; 10 μM): 34.82 | percent live (viable) cells ([6]; 10 μM): 55.23 | SI (selectivity index) [7]: 0.094 | CC50 [7]: 217 ± 20 µM

Cc1noc(N)c1-c1nc2c(NCCN(C)C)ncnc2o1 [Compound 3f, 2-(5-Amino-3-methylisoxazol-4-yl)-7-N-[2-(N,N-dimethylamino)ethyl]aminooxazolo[5,4-d]pyrimidine]
CC50 [1]: 207 ± 16.5 µM | SI (selectivity index) [2]: 0.729 | CC50 [2]: 235 ± 13 µM | SI (selectivity index) [3]: 1.124 | CC50 ([3]; Homo sapiens, HT-29, HT29, MTT): 153 ± 15 µM | CC50 [4]: 172 ± 20.7 µM | SI (selectivity index) [5]: 1.161 | CC50 ([5]; A549, MTT, tested 1–500 µM): 148 ± 13.8 µM | apoptosis mean ([6]; 1 μM): 7.07 | late apoptosis mean ([6]; 1 μM): 3.15 | necrosis mean ([6]; 1 μM): 0.16 | percent live (viable) cells ([6]; 1 μM): 89.62 | apoptosis mean ([6]; 2 μM): 3.08 | late apoptosis mean ([6]; 2 μM): 7.34 | necrosis mean ([6]; 2 μM): 5.76 | percent live (viable) cells ([6]; 2 μM): 83.82 | apoptosis mean ([6]; 5 μM): 6.76 | late apoptosis mean ([6]; 5 μM): 12.74 | necrosis mean ([6]; 5 μM): 5.73 | percent live (viable) cells ([6]; 5 μM): 74.77 | apoptosis mean ([6]; 10 μM): 18.64 | late apoptosis mean ([6]; 10 μM): 6.51 | necrosis mean ([6]; 10 μM): 2.78 | percent live (viable) cells ([6]; 10 μM): 72.06 | SI (selectivity index) [7]: 0.881 | CC50 [7]: 195 ± 12 µM

COc1cc2nccc(Oc3ccc(NC(=O)NC4CC4)c(Cl)c3)c2cc1C(N)=O [Lenvatinib]
IC50 (HT29): 431 µM | IC50 (A549; listed as lenvatinib): almost no effect | IC50 (A549; ref 69): No effect ^f

CCCCCNc1ncnc2oc(-c3c(C)noc3N)nc12 [Compound 3e, 2-(5-Amino-3-methylisoxazol-4-yl)-7-N-pentylaminooxazolo[5,4-d]pyrimidine]
CC50 [1]: 89.2 ± 6.04 µM | SI (selectivity index) [2]: 0.702 | CC50 [2]: 178 ± 6.65 µM | SI (selectivity index) [3]: 0.963 | CC50 ([3]; Homo sapiens, HT-29, HT29, MTT): 129 ± 10 µM | CC50 [4]: 125 ± 11.5 µM | SI (selectivity index) [5]: 0.999 | CC50 ([5]; A549, MTT, tested 1–500 µM): 125 ± 12.1 µM | apoptosis mean ([6]; 1 μM): 6.20 | late apoptosis mean ([6]; 1 μM): 11.11 | necrosis mean ([6]; 1 μM): 4.53 | percent live (viable) cells ([6]; 1 μM): 78.17 | apoptosis mean ([6]; 2 μM): 4.33 | late apoptosis mean ([6]; 2 μM): 12.44 | necrosis mean ([6]; 2 μM): 9.43 | percent live (viable) cells ([6]; 2 μM): 73.80 | apoptosis mean ([6]; 5 μM): 5.40 | late apoptosis mean ([6]; 5 μM): 18.31 | necrosis mean ([6]; 5 μM): 10.22 | percent live (viable) cells ([6]; 5 μM): 66.07 | apoptosis mean ([6]; 10 μM): 4.05 | late apoptosis mean ([6]; 10 μM): 22.59 | necrosis mean ([6]; 10 μM): 20.74 | percent live (viable) cells ([6]; 10 μM): 52.63 | SI (selectivity index) [7]: 0.804 | CC50 [7]: 155 ± 15.5 µM

CCCNc1ncnc2oc(-c3c(C)noc3N)nc12 [Compound 3c, 2-(5-Amino-3-methylisoxazol-4-yl)-7-N-propylaminooxazolo[5,4-d]pyrimidine]
CC50 [1]: 90.6 ± 8.75 µM | melting point: 220 to 221 °C (dec.) | SI (selectivity index) [3]: 0.766 | CC50 ([3]; Homo sapiens, HT-29, HT29, MTT): 224 ± 23.1 µM | CC50 [4]: 172 ± 14.5 µM | CC50 ± SD ([5]; A549, MTT, tested 1–500 µM): no activity | SI (selectivity index) [7]: 0.862 | CC50 [7]: 199 ± 16.1 µM

Cc1noc(N)c1-c1nc2c(NCCN3CCOCC3)ncnc2o1 [Compound 3j, 2-(5-Amino-3-methylisoxazol-4-yl)-7-N-[2-(morpholin-4-yl)ethyl]aminooxazolo[5,4-d]pyrimidine]
CC50 [1]: 52.9 ± 9.51 µM | SI (selectivity index) [3]: >>1 | CC50 ([3]; Homo sapiens, HT-29, HT29, MTT): 99.9 ± 10.9 µM | CC50 ± SD [8]: no toxicity at all; also recorded: Non-toxic | apoptosis mean ([6]; 1 μM): 5.45 | late apoptosis mean ([6]; 1 μM): 29.25 | necrosis mean ([6]; 1 μM): 8.01 | percent live (viable) cells ([6]; 1 μM): 57.30 | apoptosis mean ([6]; 2 μM): 8.18 | late apoptosis mean ([6]; 2 μM): 26.44 | necrosis mean ([6]; 2 μM): 3.92 | percent live (viable) cells ([6]; 2 μM): 61.47 | apoptosis mean ([6]; 5 μM): 8.28 | late apoptosis mean ([6]; 5 μM): 30.59 | necrosis mean ([6]; 5 μM): 3.45 | percent live (viable) cells ([6]; 5 μM): 57.69 | apoptosis mean ([6]; 10 μM): 1.34 | late apoptosis mean ([6]; 10 μM): 13.55 | necrosis mean ([6]; 10 μM): 32.35 | percent live (viable) cells ([6]; 10 μM): 52.76 | SI (selectivity index) [7]: >>1 | CC50 [7]: 197 ± 13.1 µM
